Drawing on US7105520B2, “Phenylalanine derivatives” (Ajinomoto Co., Inc., priority 2000, dated 2006), this text covers IC50 for 17 compounds.

One test deals with T1, integrin α 4β7 (Homo sapiens, UniProt P13612+P26010).
T1 construct: lymphoma cell strain RPMI-8866 of human B cells, known to express integrin α 4β7; endogenous in cells; host or cells: RPMI-8866 (human B lymphoma cell line)
T1 sequence (P13612 34-1032): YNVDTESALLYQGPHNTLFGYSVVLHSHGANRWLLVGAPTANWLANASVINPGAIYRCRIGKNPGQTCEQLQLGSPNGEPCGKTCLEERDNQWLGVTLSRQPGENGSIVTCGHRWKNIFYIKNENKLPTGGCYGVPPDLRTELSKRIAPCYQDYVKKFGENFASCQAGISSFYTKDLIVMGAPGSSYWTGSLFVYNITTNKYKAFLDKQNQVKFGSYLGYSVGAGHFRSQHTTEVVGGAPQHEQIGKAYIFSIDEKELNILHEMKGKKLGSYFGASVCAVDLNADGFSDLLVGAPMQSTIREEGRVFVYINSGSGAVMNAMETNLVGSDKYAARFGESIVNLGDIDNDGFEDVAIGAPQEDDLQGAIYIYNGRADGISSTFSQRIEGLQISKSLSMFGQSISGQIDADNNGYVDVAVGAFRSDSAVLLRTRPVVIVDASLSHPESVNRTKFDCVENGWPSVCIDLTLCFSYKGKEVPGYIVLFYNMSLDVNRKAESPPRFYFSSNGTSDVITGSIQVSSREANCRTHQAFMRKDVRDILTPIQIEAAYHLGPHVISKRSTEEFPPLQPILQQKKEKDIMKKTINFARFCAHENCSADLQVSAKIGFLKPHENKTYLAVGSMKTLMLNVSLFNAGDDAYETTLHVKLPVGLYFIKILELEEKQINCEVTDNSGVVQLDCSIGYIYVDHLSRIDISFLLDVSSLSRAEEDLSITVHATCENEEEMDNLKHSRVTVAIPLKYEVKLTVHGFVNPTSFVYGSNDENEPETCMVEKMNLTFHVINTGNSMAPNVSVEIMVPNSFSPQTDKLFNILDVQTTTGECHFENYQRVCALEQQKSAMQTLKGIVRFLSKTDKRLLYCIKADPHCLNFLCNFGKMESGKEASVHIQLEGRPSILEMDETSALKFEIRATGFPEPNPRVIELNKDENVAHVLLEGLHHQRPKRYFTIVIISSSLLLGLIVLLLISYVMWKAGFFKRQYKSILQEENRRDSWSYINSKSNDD
T1 sequence (P26010 20-798): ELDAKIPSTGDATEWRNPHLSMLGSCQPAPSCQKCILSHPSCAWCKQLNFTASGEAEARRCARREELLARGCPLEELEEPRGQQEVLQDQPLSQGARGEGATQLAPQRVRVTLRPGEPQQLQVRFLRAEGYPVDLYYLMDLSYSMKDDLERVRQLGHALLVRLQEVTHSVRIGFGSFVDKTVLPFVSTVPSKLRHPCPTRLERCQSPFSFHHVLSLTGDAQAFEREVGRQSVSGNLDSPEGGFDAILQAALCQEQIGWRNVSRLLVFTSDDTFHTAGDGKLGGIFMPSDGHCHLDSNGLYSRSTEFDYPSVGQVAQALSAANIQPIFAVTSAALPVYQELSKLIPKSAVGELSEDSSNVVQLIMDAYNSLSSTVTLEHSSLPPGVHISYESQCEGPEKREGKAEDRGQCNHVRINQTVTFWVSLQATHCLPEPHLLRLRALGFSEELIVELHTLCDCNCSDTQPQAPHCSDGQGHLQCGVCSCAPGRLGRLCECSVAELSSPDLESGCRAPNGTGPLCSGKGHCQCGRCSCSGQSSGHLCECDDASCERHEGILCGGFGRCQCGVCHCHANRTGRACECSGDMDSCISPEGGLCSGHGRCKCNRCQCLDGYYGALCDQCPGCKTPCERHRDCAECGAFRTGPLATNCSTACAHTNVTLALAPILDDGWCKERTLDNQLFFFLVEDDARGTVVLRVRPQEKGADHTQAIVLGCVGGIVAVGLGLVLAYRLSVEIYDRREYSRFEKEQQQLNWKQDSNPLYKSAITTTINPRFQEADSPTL
The test is described as follows: VCAM antagonistic activity (VCAM-1/α4β7 binding assay), RPMI-8866 cells binding to VCAM-1. The format is cell-based. The note with it: RPMI-8866 cells (human B cells) binding to recombinant human VCAM-1; binding buffer containing 4 mM of MnCl2; room temperature, 30 minutes; read-out: VCAM-1/α 4 β 7 linking antagonization activity IC50. How it is done:
(Test Example) VCAM Antagonistic Activity (VCAM-1/α4β7 Binding Assay):
The capacity of a test substance antagonistic to the binding of lymphoma cell strain RPMI-8866 of human B cells, known to express integrin α 4β7, to VCAM-1 was determined.
(§1) 100 μl/well of a solution (500 ng/ml) of recombinant human VCAM-1 (R & D systems) solution diluted with buffer A (0.1 M NaHCO3, pH 9.6) was added to a micro titer plate having 96 wells (Nunc Maxisorp). After the incubation at 4° C. overnight, unbound VCAM-1 was removed by washing once with PBS. After completion of the washing, a buffer (buffer B) obtained by diluting Block Ace® (Dainippon Pharmaceutical Co., Ltd.) with PBS to ¼ concentration was added in an amount of 150 μl/well. After the incubation at room temperature for 1 hour, buffer B was removed and the plate was washed with PBS once.
RPMI-8866 cells were incubated in DMEM containing 10 μg/ml of Calcein-AM (Wako Pure Chemical Industries, Ltd.) at 37° C. for 30 minutes to label with fluorescence. The cells were again suspended in a binding buffer (20 mM HEPES, DMEM containing 0.1% BSA) containing 4 mM of MnCl2.
(§2) 50 μl of a test substance of various concentrations obtained by the dilution with the binding buffer was added to the plate. Immediately thereafter, 50 μl (final volume: 100 μl/well) of the fluorescent RPMI-8866 cells (4×10^6 cells/ml) were added thereto, and they were incubated at room temperature for 30 minutes. After the shaking on a plate shaker (IKA MTS-4) at 800 rpm for 30 seconds, the solution was immediately removed to remove the unbound cells. The fluorescence quantity of the bound cells remaining in the wells was determined with a fluorescent plate reader (Wallac 1420 ARVO multi-label counter) (filter excitation wave length: 485 nm, emission wave length: 535 nm). The fluorescent strength thus obtained is proportional to the number of RPMI-8866 cells bound to VCAM-1 and remaining on the plate. The binding rate of each test material in various concentrations was determined while the fluorescent strength of the test material-free well was determined to be 100%. The concentration IC50 for the 50% binding inhibition was calculated.

Another test addresses T2, integrin α 4β1 (Homo sapiens, UniProt P05556+P13612).
T2 construct: cell strain Jurkat (ATCC TIB-152) of human T cells, known to express integrin α 4β1; host or cells: Jurkat (human T cell line)
The test is described as follows: VCAM antagonistic activity (VCAM-1/α4β1 binding assay), Jurkat cells binding to VCAM-1. The format is cell-based. The note with it: Jurkat cells (human T cells) binding to recombinant human VCAM-1; room temperature, 30 minutes; read-out: VCAM-1/α 4 β 1 linking antagonization activity IC50. How it is done: (Test Example) VCAM Antagonistic Activity (VCAM-1/α4β1 Binding Assay):
The capacity of a test substance antagonistic to the binding of cell strain Jurkat (ATCC TIB-152) of human T cells, known to express integrin α 4β1, to VCAM-1 was determined.
as §1
Jurkat cells were washed with Dulbecco modified Eagle medium (SIGMA, hereinafter referred to as “DMEM”) twice and then incubated in DMEM containing 10 μg/ml of Calcein-AM (Wako Pure Chemical Industries, Ltd.) at 37° C. in dark place for 30 minutes to label with fluorescence. The cells were again suspended in a binding buffer (20 mM HEPES, DMEM containing 0.1% BSA).
as §2, with “Jurkat” for “RPMI-8866”

T2 sequence (P05556 21-798, one chain of several): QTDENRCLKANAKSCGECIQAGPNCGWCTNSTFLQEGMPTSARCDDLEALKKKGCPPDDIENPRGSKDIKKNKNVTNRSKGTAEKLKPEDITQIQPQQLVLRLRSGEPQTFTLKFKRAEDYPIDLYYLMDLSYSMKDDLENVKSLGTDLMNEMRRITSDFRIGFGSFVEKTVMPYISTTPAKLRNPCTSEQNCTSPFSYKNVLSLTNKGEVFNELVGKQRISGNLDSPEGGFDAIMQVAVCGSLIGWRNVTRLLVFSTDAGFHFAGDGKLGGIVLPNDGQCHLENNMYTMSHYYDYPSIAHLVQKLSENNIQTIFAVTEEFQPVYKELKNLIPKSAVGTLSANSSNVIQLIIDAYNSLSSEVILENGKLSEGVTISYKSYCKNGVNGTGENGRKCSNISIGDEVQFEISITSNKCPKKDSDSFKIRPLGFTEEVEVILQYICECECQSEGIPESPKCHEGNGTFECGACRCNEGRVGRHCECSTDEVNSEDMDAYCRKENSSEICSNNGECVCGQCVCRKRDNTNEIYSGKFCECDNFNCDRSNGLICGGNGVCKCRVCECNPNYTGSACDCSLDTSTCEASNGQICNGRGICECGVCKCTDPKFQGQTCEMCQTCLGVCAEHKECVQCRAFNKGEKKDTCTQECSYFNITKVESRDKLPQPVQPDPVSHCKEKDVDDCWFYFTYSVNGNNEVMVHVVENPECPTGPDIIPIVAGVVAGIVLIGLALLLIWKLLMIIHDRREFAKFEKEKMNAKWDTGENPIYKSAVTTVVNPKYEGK

Regarding `CC(C)NCCN(c1ccc([N+](=O)[O-])c(C(=O)NC(Cc2ccc(OCc3c(Cl)cccc3Cl)cc2)C(=O)O)c1)C(C)C` (stereo not shown) [Example 2, N-(3-(N-isopropylaminoethyl-N′-isopropyl)amino-6-nitrobenzoyl)-O-(2,6-dichlorobenzyl)tyrosine], the figures for the IC50 at integrin α 4β7 and at integrin α 4β1 were 100 nM and 4000 nM, respectively.

Take `CC(C)NCCCN(c1ccc([N+](=O)[O-])c(C(=O)NC(Cc2ccc(OCc3c(Cl)cccc3Cl)cc2)C(=O)O)c1)C(C)C` (stereo not shown) [Example 3]: the IC50 at integrin α 4β7 is 120 nM; on integrin α 4β1, 5500 nM.

For `CCCNCCCCN(CCC)c1ccc([N+](=O)[O-])c(C(=O)NC(Cc2ccc(OCc3c(Cl)cccc3Cl)cc2)C(=O)O)c1` (stereo not shown) [Example 4], the IC50 is 120 nM at integrin α 4β7 and 3700 nM at integrin α 4β1.

For the compound `CC1CN(c2ccc([N+](=O)[O-])c(C(=O)NC(Cc3ccc(OCc4c(Cl)cccc4Cl)cc3)C(=O)O)c2)C(C)CN1` (stereo not shown) [Example 5], the IC50 is 140 nM at integrin α 4β7 and 4900 nM on integrin α 4β1.

Regarding `CCNC/C=C/CN(CC)c1ccc([N+](=O)[O-])c(C(=O)NC(Cc2ccc(OCc3c(Cl)cccc3Cl)cc2)C(=O)O)c1` (stereo not shown) [Example 6], the IC50 amounted to 150 nM on integrin α 4β7 and 4800 nM at integrin α 4β1.

Regarding `CCNCCN(CC)c1ccc([N+](=O)[O-])c(C(=O)NC(Cc2ccc(OCc3c(Cl)cccc3Cl)cc2)C(=O)O)c1` (stereo not shown) [Example 7], the results for the IC50 on integrin α 4β7 and on integrin α 4β1 were 160 nM and 9400 nM, respectively.

`O=C(NC(Cc1ccc(OCc2c(Cl)cccc2Cl)cc1)C(=O)O)c1cc(N2CCNCC2)ccc1[N+](=O)[O-]` (stereo not shown) [Example 8]: the IC50 on integrin α 4β7 stood at 750 nM; on integrin α 4β1, 4000 nM.

Turning to `CCCN(C)c1ccc([N+](=O)[O-])c(C(=O)NC(Cc2ccc(OCc3c(Cl)cccc3Cl)cc2)C(=O)O)c1` (stereo not shown) [Example 12], the IC50 on integrin α 4β7 came out at 360 nM; on integrin α 4β1 it was 4100 nM.

With `O=C(NC(Cc1ccc(OCc2c(Cl)cccc2Cl)cc1)C(=O)O)c1cc(N2CCOCC2)ccc1[N+](=O)[O-]` (stereo not shown) [Example 18], the values for the IC50 on integrin α 4β7 and on integrin α 4β1 were 140 nM and 2200 nM, respectively.

In the case of `O=C1CCN(c2ccc([N+](=O)[O-])c(C(=O)NC(Cc3ccc(OCc4c(Cl)cccc4Cl)cc3)C(=O)O)c2)CC1` (stereo not shown) [Example 21], the IC50 was 160 nM on integrin α 4β7 and 3300 nM at integrin α 4β1.

In the case of `O=C(NC(Cc1ccc(OCc2c(Cl)cccc2Cl)cc1)C(=O)O)c1cc(N2CCC(O)CC2)ccc1[N+](=O)[O-]` (stereo not shown) [Example 22], the figures for the IC50 at integrin α 4β7 and on integrin α 4β1 were 220 nM and 4600 nM, respectively.

Regarding `CN(CCO)c1ccc([N+](=O)[O-])c(C(=O)NC(Cc2ccc(OCc3c(Cl)cccc3Cl)cc2)C(=O)O)c1` (stereo not shown) [Example 23], the figures for the IC50 at integrin α 4β7 and on integrin α 4β1 were 66 nM and 2200 nM, respectively.

In the case of `O=C(NC(Cc1ccc(OCc2c(Cl)cccc2Cl)cc1)C(=O)O)c1ccc(N2CCNCC2)c([N+](=O)[O-])c1` (stereo not shown) [Example 25], the IC50 is 750 nM on integrin α 4β7 and 4000 nM at integrin α 4β1.

As for `CC(C)NCCN(c1ccc([N+](=O)[O-])c(C(=O)NC(Cc2ccc(NC(=O)c3snnc3-c3ccccc3)cc2)C(=O)O)c1)C(C)C` (stereo not shown) [Example 26], the IC50 on integrin α 4β7 was found to be 37 nM; at integrin α 4β1, 2400 nM.

For `CSc1ncc(Cl)c(C(=O)Nc2ccc(CC(NC(=O)c3cc(N(CCNC(C)C)C(C)C)ccc3[N+](=O)[O-])C(=O)O)cc2)n1` (stereo not shown) [Example 27], the IC50 is 1.2 nM on integrin α 4β7 and 27 nM at integrin α 4β1.

Take `CSc1ncc(Cl)c(C(=O)Nc2ccc(C[C@H](NC(=O)c3cc(N(CCNC(C)C)C(C)C)ccc3[N+](=O)[O-])C(=O)O)cc2)n1` [Example 28]: the IC50 at integrin α 4β7 worked out at 1.1 nM; at integrin α 4β1 it was 23 nM.

In the case of `CSc1ncc(Cl)c(C(=O)Nc2ccc(C[C@H](NC(=O)c3cc(N(CCN(C(C)=O)C(C)C)C(C)C)ccc3[N+](=O)[O-])C(=O)O)cc2)n1` [Example 30], the values for the IC50 at integrin α 4β7 and at integrin α 4β1 were 5.3 nM and 87 nM, respectively.
